The record followed here is ChEMBL document CHEMBL5724806, “Unraveling interindividual differences and functional consequences of gut microbial metabolism of immunosuppressants” (2024).

Holding throughout (assay type): ADME
Series [1] is described as follows: The drug is tested on Alloscardovia omnicolens strain: DSM21503 for biotransformation under anaerobic condition. The drug concentrations were measured over 6 timepoints collected between 0 and 12 hours of incubation by liquid-chromatography-coupled mass spectrometry (LC–MS). Further details: dose 5 uM, timepoint 0, 1.5, 3, 6, 9, 12 hours. The following applies: 5 µM.

The nature of series [2]: The drug is tested on Bifidobacterium longum strain: DSM20088 for biotransformation under anaerobic condition. The drug concentrations were measured over 6 timepoints collected between 0 and 12 hours of incubation by liquid-chromatography-coupled mass spectrometry (LC–MS). On the set-up: dose 5 uM, timepoint 0, 1.5, 3, 6, 9, 12 hours. The following applies: 5 µM.
Series [3] in a line: The drug is tested on Bacteroides fragilis strain: DSM2151 for biotransformation under anaerobic condition. The drug concentrations were measured over 6 timepoints collected between 0 and 12 hours of incubation by liquid-chromatography-coupled mass spectrometry (LC–MS). Further details: dose 5 uM, timepoint 0, 1.5, 3, 6, 9, 12 hours. The following applies: 5 µM.
The nature of series [4]: The drug is tested on Bacteroides ovatus strain: ATCC 8483 for biotransformation under anaerobic condition. The drug concentrations were measured over 6 timepoints collected between 0 and 12 hours of incubation by liquid-chromatography-coupled mass spectrometry (LC–MS). On the set-up: dose 5 uM, timepoint 0, 1.5, 3, 6, 9, 12 hours. To be noted: 5 µM.
Series [5] in a line: The drug is tested on Bacteroides uniformis strain: DSM6597 for biotransformation under anaerobic condition. The drug concentrations were measured over 6 timepoints collected between 0 and 12 hours of incubation by liquid-chromatography-coupled mass spectrometry (LC–MS). On the set-up: dose 5 uM, timepoint 0, 1.5, 3, 6, 9, 12 hours. To be noted: 5 µM.
The nature of series [6]: The drug is tested on Bacteroides vulgatus strain: DSM1447 for biotransformation under anaerobic condition. The drug concentrations were measured over 6 timepoints collected between 0 and 12 hours of incubation by liquid-chromatography-coupled mass spectrometry (LC–MS). Further details: dose 5 uM, timepoint 0, 1.5, 3, 6, 9, 12 hours. The following applies: phocaeicola vulgatus, 5 µM.

Series [7] is described as follows: The drug is tested on Odoribacter splanchnicus strain: DSM20712 for biotransformation under anaerobic condition. The drug concentrations were measured over 6 timepoints collected between 0 and 12 hours of incubation by liquid-chromatography-coupled mass spectrometry (LC–MS). To be noted: 5 µM. Further details: dose 5 uM, timepoint 0, 1.5, 3, 6, 9, 12 hours.
A short description of series [8]: The drug is tested on Coprococcus comes strain: ATCC27758 for biotransformation under anaerobic condition. The drug concentrations were measured over 6 timepoints collected between 0 and 12 hours of incubation by liquid-chromatography-coupled mass spectrometry (LC–MS). On the set-up: dose 5 uM, timepoint 0, 1.5, 3, 6, 9, 12 hours. The following applies: 5 µM.
Series [9] in a line: The drug is tested on Eubacterium eligens strain: DSM3376 for biotransformation under anaerobic condition. The drug concentrations were measured over 6 timepoints collected between 0 and 12 hours of incubation by liquid-chromatography-coupled mass spectrometry (LC–MS). Further details: dose 5 uM, timepoint 0, 1.5, 3, 6, 9, 12 hours. The following applies: lachnospira eligens, 5 µM.

A short description of series [10]: The drug is tested on Eubacterium hallii strain: DSM3353 for biotransformation under anaerobic condition. The drug concentrations were measured over 6 timepoints collected between 0 and 12 hours of incubation by liquid-chromatography-coupled mass spectrometry (LC–MS). The following applies: anaerobutyricum hallii, 5 µM. Further details: dose 5 uM, timepoint 0, 1.5, 3, 6, 9, 12 hours.

Series [11] can be described thus: The drug is tested on Eubacterium rectale strain: DSM17629 for biotransformation under anaerobic condition. The drug concentrations were measured over 6 timepoints collected between 0 and 12 hours of incubation by liquid-chromatography-coupled mass spectrometry (LC–MS). The following applies: agathobacter rectalis, 5 µM. On the set-up: dose 5 uM, timepoint 0, 1.5, 3, 6, 9, 12 hours.

The nature of series [12]: The drug is tested on Lactobacillus ruminis strain: ATCC25644 for biotransformation under anaerobic condition. The drug concentrations were measured over 6 timepoints collected between 0 and 12 hours of incubation by liquid-chromatography-coupled mass spectrometry (LC–MS). On the set-up: dose 5 uM, timepoint 0, 1.5, 3, 6, 9, 12 hours. To be noted: ligilactobacillus ruminis, 5 µM.

The nature of series [13]: The drug is tested on Enterococcus faecalis strain: ATCC29212 for biotransformation under anaerobic condition. The drug concentrations were measured over 6 timepoints collected between 0 and 12 hours of incubation by liquid-chromatography-coupled mass spectrometry (LC–MS). To be noted: 5 µM. Further details: dose 5 uM, timepoint 0, 1.5, 3, 6, 9, 12 hours.
The nature of series [14]: The drug is tested on Alloscardovia omnicolens strain: DSM21503 for biotransformation under microaerobic condition. The drug concentrations were measured over 6 timepoints collected between 0 and 12 hours of incubation by liquid-chromatography-coupled mass spectrometry (LC–MS). On the set-up: dose 5 uM, timepoint 0, 1.5, 3, 6, 9, 12 hours. The following applies: 5 µM.

Series [15] is described as follows: The drug is tested on Lactobacillus ruminis strain: ATCC25644 for biotransformation under microaerobic condition. The drug concentrations were measured over 6 timepoints collected between 0 and 12 hours of incubation by liquid-chromatography-coupled mass spectrometry (LC–MS). Further details: dose 5 uM, timepoint 0, 1.5, 3, 6, 9, 12 hours. The following applies: ligilactobacillus ruminis, 5 µM.

A short description of series [16]: The drug is tested on Enterococcus faecalis strain: ATCC29212 for biotransformation under microaerobic condition. The drug concentrations were measured over 6 timepoints collected between 0 and 12 hours of incubation by liquid-chromatography-coupled mass spectrometry (LC–MS). The following applies: 5 µM. On the set-up: dose 5 uM, timepoint 0, 1.5, 3, 6, 9, 12 hours.

Series [17] in a line: The drug is tested on the gut metagenome community of A-08 with ENA study accession number: PRJEB31790 for biotransformation under anaerobic condition. The drug concentrations were measured over 7 timepoints collected between 0 and 12 hours of incubation by liquid-chromatography-coupled mass spectrometry (LC–MS). On the set-up: dose 5 uM, timepoint 0, 0.75, 1.5, 3, 6, 9, 12 hours. The following applies: 5 µM.

Series [18] is described as follows: The drug is tested on the gut metagenome community of P-02 with ENA study accession number: PRJEB31790 for biotransformation under anaerobic condition. The drug concentrations were measured over 7 timepoints collected between 0 and 12 hours of incubation by liquid-chromatography-coupled mass spectrometry (LC–MS). On the set-up: dose 5 uM, timepoint 0, 0.75, 1.5, 3, 6, 9, 12 hours. The following applies: 5 µM.

Series [19] in a line: The drug is tested on the gut metagenome community of P-03 with ENA study accession number: PRJEB31790 for biotransformation under anaerobic condition. The drug concentrations were measured over 7 timepoints collected between 0 and 12 hours of incubation by liquid-chromatography-coupled mass spectrometry (LC–MS). Further details: dose 5 uM, timepoint 0, 0.75, 1.5, 3, 6, 9, 12 hours. The following applies: 5 µM.

A short description of series [20]: The drug is tested on the gut metagenome community of T-05 with ENA study accession number: PRJEB31790 for biotransformation under anaerobic condition. The drug concentrations were measured over 7 timepoints collected between 0 and 12 hours of incubation by liquid-chromatography-coupled mass spectrometry (LC–MS). Further details: dose 5 uM, timepoint 0, 0.75, 1.5, 3, 6, 9, 12 hours. To be noted: 5 µM.

Series [21] can be described thus: The drug is tested on the gut metagenome community of A-03 with ENA study accession number: PRJEB31790 for biotransformation under microaerobic condition. The drug concentrations were measured over 7 timepoints collected between 0 and 12 hours of incubation by liquid-chromatography-coupled mass spectrometry (LC–MS). Further details: dose 5 uM, timepoint 0, 0.75, 1.5, 3, 6, 9, 12 hours. The following applies: 5 µM.

Series [22] in a line: The drug is tested on the gut metagenome community of A-06 with ENA study accession number: PRJEB31790 for biotransformation under microaerobic condition. The drug concentrations were measured over 7 timepoints collected between 0 and 12 hours of incubation by liquid-chromatography-coupled mass spectrometry (LC–MS). Further details: dose 5 uM, timepoint 0, 0.75, 1.5, 3, 6, 9, 12 hours. To be noted: 5 µM.

Series [23] can be described thus: The drug is tested on the gut metagenome community of A-08 with ENA study accession number: PRJEB31790 for biotransformation under microaerobic condition. The drug concentrations were measured over 7 timepoints collected between 0 and 12 hours of incubation by liquid-chromatography-coupled mass spectrometry (LC–MS). On the set-up: dose 5 uM, timepoint 0, 0.75, 1.5, 3, 6, 9, 12 hours. The following applies: 5 µM.

Series [24] in a line: The drug is tested on the gut metagenome community of T-05 with ENA study accession number: PRJEB31790 for biotransformation under microaerobic condition. The drug concentrations were measured over 7 timepoints collected between 0 and 12 hours of incubation by liquid-chromatography-coupled mass spectrometry (LC–MS). Further details: dose 5 uM, timepoint 0, 0.75, 1.5, 3, 6, 9, 12 hours. The following applies: 5 µM.

As for `CN(Cc1cnc2nc(N)nc(N)c2n1)c1ccc(C(=O)N[C@@H](CCC(=O)O)C(=O)O)cc1` [METHOTREXATE], the “Bacterial Biotransformation” value in [1], in series [2], in series [3], in [4], in series [5] and in series [6] was “Compound NOT metabolized” in each case. The “Bacterial Biotransformation” value in [7] is “Compound NOT metabolized”; in series [8], “Compound metabolized”; in [9] it was “Compound NOT metabolized”; in series [10] it was “Compound metabolized”; in [11], “Compound NOT metabolized”; in [12], “Compound NOT metabolized”. Moreover, the “Bacterial Biotransformation” value in [13] was “Compound NOT metabolized”; in series [14], “Compound NOT metabolized”; in series [15], “Compound NOT metabolized”; in [16], “Compound NOT metabolized”; in series [17], “Compound metabolized”; in series [18], “Compound metabolized”. Besides, the “Bacterial Biotransformation” value is listed as “Compound metabolized” in series [19]; “Compound metabolized” in series [20]; “Compound NOT metabolized” in series [21]; “Compound metabolized” in [22]; “Compound metabolized” in [23]; “Compound metabolized” in series [24].
On to `C[C@H]1C[C@@H]2[C@H]([C@@H](O)C[C@@]3(C)[C@H]2CC[C@]3(O)C(=O)CO)[C@@]2(C)C=CC(=O)C=C12` [METHYLPREDNISOLONE], for which the “Bacterial Biotransformation” value in series [1], in [2], in series [3], in series [4], in [5] and in series [6] was “Compound NOT metabolized” throughout. Also, the “Bacterial Biotransformation” value in [7], in series [8], in series [9], in [10], in series [11] and in series [12] was “Compound NOT metabolized” throughout. Besides, the “Bacterial Biotransformation” value in series [13] is recorded as “Compound NOT metabolized”; in [14], “Compound NOT metabolized”; in series [15] it was “Compound NOT metabolized”; in [16] it was “Compound NOT metabolized”; in series [17], “Compound metabolized”; in series [18], “Compound metabolized”. Moreover, the “Bacterial Biotransformation” value in series [19] is given as “Compound metabolized”; in series [20] it was “Compound NOT metabolized”; in [21], “Compound metabolized”; in series [22], “Compound metabolized”; in [23], “Compound metabolized”; in [24] it was “Compound metabolized”.
In the case of `COc1c(C)c2c(c(O)c1C/C=C(\C)CCC(=O)OCCN1CCOCC1)C(=O)OC2` [MYCOPHENOLATE MOFETIL], the “Bacterial Biotransformation” value in [1] is given as “Compound metabolized”; in series [2], “Compound metabolized”; in series [3] it was “Compound NOT metabolized”; in [4] it was “Compound metabolized”; in [5], “Compound metabolized”; in series [6] it was “Compound NOT metabolized”. Further, the “Bacterial Biotransformation” value in [7] was “Compound NOT metabolized”; in series [8], “Compound NOT metabolized”; in series [9], “Compound metabolized”; in series [10], “Compound NOT metabolized”; in series [11], “Compound NOT metabolized”; in [12], “Compound metabolized”. Also, the “Bacterial Biotransformation” value in series [13] was “Compound metabolized”; in series [14], “Compound NOT metabolized”; in series [15], “Compound metabolized”; in series [16], “Compound metabolized”; in series [17], “Compound metabolized”; in [18] it was “Compound metabolized”. Also, the “Bacterial Biotransformation” value in [19], in [20], in series [21], in [22], in series [23] and in series [24] was “Compound metabolized” throughout.
